Measurements taken from patent US20020102246A1, “Antimicrobial compositions” (Novozymes A/S, priority 2000, published 2002).
Marks after values point to notes of the source that are not given here.

Test system: Pseudomonas putida (ATCC 12633)
Experiment: Antimicrobial activity of mediators oxidized by Coprinus cinereus peroxidase (rCiP)
Assay type: cell-based
Conditions: 50 μM mediator, rCiP 4 POXU/L, 0.5 mM hydrogen peroxide, 20 minutes at 40° C., pH 7; 6 corresponds to a total kill
Procedure: Antibacterial activity of 4-aminophenol, 4-hydroxy-4′-dimethylamino azobenzene, 4,4′-biphenol, 10-methylphenoxazine and 4,4′-dihydroxydiphenyl ether was evaluated when oxidized by Coprinus cinereus peroxidase (rCiP) (available from Novozymes A/S).
Antimicrobial activity was determined on Pseudomonas putida (ATCC 12633), the cells were grown in Tryptone Soy Broth, TSB (Oxoid CM129) overnight, washed two times in sterile 0.9% saline and suspended in 50 mM HEPES buffer (Sigma H3375) at pH 7 to a cell concentration of approximately 10^6 CFU/ml. The mediators were added to the cell suspension to a final concentration of 50 μM, rCiP was added to the concentration 4 POXU/L and the enzyme reaction was started by addition of hydrogen peroxide to a final concentration of 0.5 mM. Antimicrobial activity was determined after 20 minutes incubation at 40° C., by a 10-fold dilution of the cell suspension into TSB substrate and incubation overnight. Antimicrobial activity was determined as log10 reduction, thus a log10 reduction of 2 corresponds to a kill of 99%.

In order of falling Log10 reduction:
1. CN1c2ccccc2Oc2ccccc21 [10-Methylphenoxazine]  3
2. Oc1ccc(Oc2ccc(O)cc2)cc1 [4,4′-Dihydroxyphenyl ether, 4,4′-Dihydroxydiphenyl ether]  2.5
3. Nc1ccc(O)cc1 [4-aminophenol]  2.5
4. Oc1ccc(-c2ccc(O)cc2)cc1 [4,4′-Biphenol, 97%, 4,4′-Biphenol]  1.5

With `CN(C)c1ccc(N=Nc2ccc(O)cc2)cc1` [4-Hydroxy-4′-dimethylamino azobenzene] the Log10 reduction was 6*.
